Results published in patent publication US9096536B2, “Asymmetrically substituted anthrapyridazone derivatives as cytostatics” (BS-154 S.P. ZO.O., priority 2011, dated 2015).
Converted amounts (≈) assume the structure as drawn. Where two headings read alike, the source gives them in different places.

Columns and labels:
[1] = test system: human promyelocytic leukemia cell line HL-60; experiment: Cytostatic activity in vitro, HL-60 sensitive line; type: cell-based; details: 50% inhibition of cell growth after 72 h continuous exposure, read-out: HL60 IC50
From the text: (§1) Tables 3 and 4 show cytostatic activity in vitro of 2,6-disubstituted and 2- or 6-monosubstituted (Tab.3), and of 2,5-disubstituted-(Tab.-4) tetracyclic anthrapyridazone derivatives using leukemia cell line HL-60 and the resistant cell sublines with resistance induced by vincristine (MDR-1) or doxorubicin (MRP). Activity of compounds is differentiated depending on their structure, but in all cases resistance indexes are more advantageous in comparison with reference compounds: doxorubicin and mitoxantrone.

HL60/VINC [2] = experiment: Cytostatic activity in vitro, vincristine-induced resistant subline (MDR-1); type: cell-based, human; details: for IC50: 72 h continuous exposure; for RI resistance index HL60/VINC: IC50(resistant cells)/IC50(sensitive cells), HL60/VINC vs HL60, 72 h
From the text: as §1

HL60/DX [3] = experiment: Cytostatic activity in vitro, doxorubicin-induced resistant subline (MRP); type: cell-based, human; details: for IC50: 72 h continuous exposure; for RI resistance index HL60/DX: IC50(resistant cells)/IC50(sensitive cells), HL60/DX vs HL60, 72 h
From the text: as §1

[4] = test system: human prostate cancer cell line DU145; experiment: Cytostatic activity in vitro, prostate cancer DU145; type: cell-based; details: 72 h continuous exposure
From the text: (§2) Table 5 presents activity in vitro of anthrapiridazone derivatives towards three cell lines of prostate cancer, naturally multidrug resistant, in comparison with references doxorubicin, mitoxantrone and taxol.

[5] = test system: human prostate cancer cell line LNCaP; experiment: Cytostatic activity in vitro, prostate cancer LNCaP; type: cell-based; details: 72 h continuous exposure
From the text: as §2

[6] = test system: human prostate cancer cell line PC3; experiment: Cytostatic activity in vitro, prostate cancer PC3; type: cell-based; details: 72 h continuous exposure
From the text: as §2

[7] = test system: human breast cancer cell line MCF7; experiment: Cytostatic activity in vitro, breast cancer MCF7; type: cell-based; details: 72 h continuous exposure
From the text: (§3) It should be mentioned that resistance index is above one order of magnitude better in comparison with doxorubicin and mitoxantrone.

MCF7/DX = experiment: Cytostatic activity in vitro, resistant breast cancer subline MCF7/DX (MDR-1); type: cell-based, human; details: for IC50: 72 h continuous exposure; for RI resistance index MCF7/DX: IC50(resistant cells)/IC50(sensitive cells), MCF7/DX vs MCF7
From the text: as §3

[8] = test system: human colon adenocarcinoma HT29; experiment: Cytostatic activity in vitro, colon adenocarcinoma HT29; type: cell-based; details: 72 h continuous exposure
From the text: (§4) Table 7 presents activity in vitro of selected anthrapyridazone derivatives according to the invention towards sensitive and resistant (MDR-1 type) cell line of human colon adenocarcinoma with resistance induced by mitoxantrone.

HT29/MIT = experiment: Cytostatic activity in vitro, mitoxantrone-induced resistant subline HT29/MIT; type: cell-based, human; details: for IC50: 72 h continuous exposure; for RI resistance index HT29/MIT: IC50(resistant cells)/IC50(sensitive cells), HT29/MIT vs HT29
From the text: as §4

uterus cancer MES-SA = experiment: Cytostatic activity, panel: uterus cancer MES-SA; type: cell-based; details: 72 h continuous exposure
From the text: (§5) Tables 8A and 8B present cytostatic activity in vitro of selected anthrapyridazone derivatives according to the invention against panel of sensitive and resistant cell lines, in comparison with doxorubicin, cisplatine and mitoxantrone.

MES-SA/DX5 = experiment: Cytostatic activity, panel: MES-SA/DX5 resistant to doxorubicin; type: cell-based; details: for RI MES-SA MES-SA/DX5: IC50(resistant cells)/IC50(sensitive cells)
From the text: as §5

colon cancer LoVo = experiment: Cytostatic activity, panel: colon cancer LoVo; type: cell-based; details: 72 h continuous exposure
From the text: as §5

LoVo/DX = experiment: Cytostatic activity, panel: LoVo/DX resistant to doxorubicin; type: cell-based; details: for RI LoVo LoVo/DX: IC50(resistant cells)/IC50(sensitive cells)
From the text: as §5

[9] = test system: lymphoblastic leukemia CCRF-CEM; experiment: Cytostatic activity, panel: lymphoblastic leukemia CCRF-CEM; type: cell-based; details: 72 h continuous exposure
From the text: as §5

CEM/C2 = experiment: Cytostatic activity, panel: CEM/C2 resistant to camptotecine; type: cell-based; details: for RI CCRF-CEM CEM/C2: IC50(resistant cells)/IC50(sensitive cells)
From the text: as §5

[10] = test system: promyelolytic leukemia HL-60; experiment: Cytostatic activity, panel: promyelolytic leukemia HL-60; type: cell-based; details: 72 h continuous exposure
From the text: as §5

HL60/MX2 = experiment: Cytostatic activity, panel: HL60/MX2 resistant to mitoxantrone; type: cell-based; details: for RI HL60 HL60/MX2: IC50(resistant cells)/IC50(sensitive cells)
From the text: as §5

CT-DNA = experiment: Interaction with isolated CT-DNA, fluorescence competition with ethidium bromide; type: binding; details: for IC50: 50% decrease in fluorescence intensity of DNA-bromide ethydine complex; for Kapp relative constant of DNA-compound bonding: Kapp = (1.26/C50) × KEtBr, KEtBr = 10^7M
From the text: It could be supposed that this property explains cytostatic activity of compounds. In Table 9 there are presented quantitative data on the affinity to DNA of tested compounds using the fluorescence method and competitive affinity to DNA of bromine ethydine and tested compounds.

HL60/VINC [11] = experiment: Substrate properties: activity against HL60/VINC in the presence of cyclosporine A (MDR-1 pump inhibitor); type: cell-based, human; details: FIG. 2
From the text: FIG. 2 shoes experimentally determined substrate properties of selected antgraoyridazone derivatives vs. Doxorubicin and Mitroxantrone. Activity in vitro against human promyelacytic leykemia cell line HL60/VINC in the presence of cyclosporine A (MDR-1 pump inhibitor).

HL60/DX [12] = experiment: Substrate properties: activity against HL60/DX in the presence of BSO (MRP pump inhibitor); type: cell-based, human; details: FIG. 3
From the text: Activity in vitro against human promyelolytic leukemia HL60/DX in the presence of D-L-buthionine-(S,R)-sulphoximine (BSO), MRP pump inhibitor.

## CNCCNc1ccc2c(=O)n(CCN(C)C)nc3c2c1C(=O)c1ccccc1-3 [BS-154, 2-[2-(Dimethyloamino)ethyl]-6-{[2-(methylamino)ethyl]amino}-2,7-dihydro-3H -dibenzo[de,h]cynnoline-3,7-dione]
[1]
  IC50: 0.9 ± 0.1 nM
HL60/VINC [2]
  IC50: 8.1 ± 1 nM
  RI resistance index HL60/VINC: 9.0
HL60/DX [3]
  IC50: 375 ± 41 nM
  RI resistance index HL60/DX: 416.7
[4]
  IC50: 3 ± 0.7 nM
[5]
  IC50: 2.6 ± 0.3 nM
[6]
  IC50: 14 ± 3.3 nM
[7]
  IC50: 8.8 ± 0.6 nM
MCF7/DX
  IC50: 8.7 ± 1.2 nM
  RI resistance index MCF7/DX: 1.0
[8]
  IC50: 5.2 ± 1.3 nM
HT29/MIT
  IC50: 11.2 ± 2.2 nM
  RI resistance index HT29/MIT: 2.1
Uterus cancer MES-SA
  IC50 MES-SA: 0.01333 ± 0.00238 µg/mL (≈ 0.0341 µM)
MES-SA/DX5; 72 h continuous exposure
  IC50 MES-SA/DX5: 0.03833 ± 0.01136 µg/mL (≈ 0.0979 µM)
MES-SA/DX5
  RI MES-SA MES-SA/DX5: 2.9
Colon cancer LoVo
  IC50 LoVo: 0.00153 ± 0.00102 µg/mL (≈ 0.00391 µM)
LoVo/DX; 72 h continuous exposure
  IC50 LoVo/DX: 0.06842 ± 0.01273 µg/mL (≈ 0.175 µM)
LoVo/DX
  RI LoVo LoVo/DX: 44.7
[9]
  IC50 CCRF-CEM: 0.00373 ± 0.00193 µg/mL (≈ 0.00953 µM)
CEM/C2; 72 h continuous exposure
  IC50 CEM/C2: 0.00124 ± 0.00137 µg/mL (≈ 0.00317 µM)
CEM/C2
  RI CCRF-CEM CEM/C2: 0.3
[10]
  IC50 HL60: 0.00111 ± 0.00002 µg/mL (≈ 0.00284 µM)
HL60/MX2; 72 h continuous exposure
  IC50 HL60/MX2: 0.00545 ± 0.00304 µg/mL (≈ 0.0139 µM)
HL60/MX2
  RI HL60 HL60/MX2: 4.9
CT-DNA
  IC50: 290 ± 10 nM
  Kapp relative constant of DNA-compound bonding: 4.28e+07 M⁻¹
HL60/VINC [11]
  Effect of blocking MDR-1 pump with cyclosporine A (CSA) on cytostatic activity: does not essentially affect the cytostatic activity
HL60/DX [12]
  Effect of MRP protein inhibitor (BSO) on cytostatic activity: only partially

## O=C1c2c(O)ccc(O)c2C(=O)c2c(NCCNCCO)ccc(NCCNCCO)c21 [Mitoxantrone, 1,4-dihydroxy-5,8-bis[2-(2-hydroxyethylamino)ethylamino]-9,10-anthracenodione, reference compound]
[1]; Homo sapiens, HL-60
  IC50: 2.1 ± 0.2 nM
HL60/VINC [2]; Homo sapiens, HL60/vinc
  IC50: 65.7 ± 6.7 nM
HL60/VINC [2]
  RI resistance index HL60/VINC: 31.3
HL60/DX [3]; Homo sapiens, HL-60
  IC50: 3430 ± 661 nM
HL60/DX [3]
  RI resistance index HL60/DX: 1633.8
[4]; Homo sapiens, DU-145
  IC50: 8.5 ± 1.5 nM
[5]; Homo sapiens, LNCaP
  IC50: 7.4 ± 1.1 nM
[6]; Homo sapiens
  IC50: 18.6 ± 3.8 nM
[7]; Homo sapiens, MCF7
  IC50: 7.4 ± 1.9 nM
MCF7/DX; Homo sapiens, MCF7/DX
  IC50: 471 ± 160 nM
MCF7/DX
  RI resistance index MCF7/DX: 63.6
[8]; Homo sapiens, HT-29
  IC50: 11.4 ± 3.9 nM
HT29/MIT; Homo sapiens, HT-29
  IC50: 854 ± 158 nM
HT29/MIT
  RI resistance index HT29/MIT: 74.9
Uterus cancer MES-SA; Homo sapiens, MES-SA
  IC50: 0.23 ± 0.121 µg/mL (≈ 0.517 µM)
MES-SA/DX5; Homo sapiens, MES-SA/Dx5, 72 h continuous exposure
  IC50: 0.66 ± 0.059 µg/mL (≈ 1.48 µM)
MES-SA/DX5
  RI MES-SA MES-SA/DX5: 2.9
Colon cancer LoVo; Homo sapiens, LoVo
  IC50: 0.22 ± 0.067 µg/mL (≈ 0.495 µM)
LoVo/DX
  RI LoVo LoVo/DX: 9.5
LoVo/DX; LoVo/DX, 72 h continuous exposure
  IC50: 2.09 ± 0.519 µg/mL (≈ 4.7 µM)
[9]; Homo sapiens, CCRF-CEM
  IC50: 0.0025 µg/mL (≈ 0.00562 µM)
CEM/C2; Homo sapiens, CEM/C2, 72 h continuous exposure
  IC50: 0.0028 µg/mL (≈ 0.0063 µM)
CEM/C2
  RI CCRF-CEM CEM/C2: 1.1
[10]; Homo sapiens, HL-60, read-out: IC50 HL60
  IC50: 0.0083 µg/mL (≈ 0.0187 µM)
HL60/MX2; Homo sapiens, HL60/MX2, 72 h continuous exposure
  IC50: 0.356 µg/mL (≈ 0.801 µM)
HL60/MX2
  RI HL60 HL60/MX2: 42.9
CT-DNA
  IC50: 48 ± 4 nM
  Kapp relative constant of DNA-compound bonding: 2.61e+08 M⁻¹
HL60/VINC [11]
  Effect of blocking MDR-1 pump with cyclosporine A (CSA) on cytostatic activity: has positive influence on maintaining the cytostatic activity
HL60/DX [12]
  Effect of MRP protein inhibitor (BSO) on cytostatic activity: essentially influences the cytostatic activity
